How the values were obtained:
Aqueous solubility = format: physicochemical
Source text: Table 5 presents the results.

[1] = Solvent properties (density, boiling point, flash point, freezing point, viscosity); format: physicochemical
Source text: Isopropyl 2-hydroxy-4-(methylsulfinyl)butanoate (also called iC3SO) has the following properties.
Green or regular hard surface cleaner or degreaser formulations containing commercial surfactants or a mixture (i.e., monomers, dimers, and short oligomers) of octyl 2-hydroxy-4-(methylsulfinyl)butanoate (also called “C8SO”) were formulated, as shown in Table 2 below. The density of C8SO is 1.08 g/mL.

[2] = in water at 25° C. and atmospheric pressure

Structure (SMILES)	Solubility (wt/wt total) (Aqueous solubility; [2]) [wt %]	Solubility (wt/wt total) (Aqueous solubility; in water, marked *Theoretical) [% wt %]	also measured
CCCCCCCCNC(=O)C(O)CC[S+](C)[O-] (centres unmarked) [2-Hydroxy-4-(Methylsulfinyl)-N-Octylbutanamide]	>50.0	–	–
CCCCCCCCCCOC(=O)C(O)CCS(C)(=O)=O (centres unmarked) [Decyl 2-Hydroxy-4-(Methylsulfonyl)Butanoate]	<0.1	–	–
COC(=O)C(O)CC[S+](C)[O-] (centres unmarked) [Methyl 2-Hydroxy-4-(Methylsulfinyl)Butanoate]	–	>50	–
CCCCCCCCOC(=O)C(O)CC[S+](C)[O-] (centres unmarked) [Octyl 2-Hydroxy-4-(Methylsulfinyl)Butanoate]	>50.0	–	–
CC(C)OC(=O)C(O)CC[S+](C)[O-] (centres unmarked) [iC3SO, Isopropyl 2-hydroxy-4-(methylsulfinyl)butanoate]	–	>50	Boiling Point [1]: 248° ° C.; Density [1]: 1.17 g/mL; Flash Point [1]: 194° ° C.; Freezing Point [1]: <−90° ° C.; Viscosity [1]: 519 cps

Further lines, with some results ahead:

Solubility (wt/wt total) (Aqueous solubility; [2]) [wt %]	Solubility (wt/wt total) (Aqueous solubility; in water, marked *Theoretical) [% wt %]	Structure (SMILES)	also measured
–	>50	CCCCOC(=O)C(O)CC[S+](C)[O-] (centres unmarked) [Butyl 2-Hydroxy-4-(Methylsulfinyl)Butanoate]	–
0.9	–	CCCCOC(=O)C(O)CCSC (centres unmarked) [Butyl 2-hydroxy-4-(methylthio)butanoate, Butyl 2-Hydroxy-4-(Methylthio)Butanoate]	–
>50.0	–	CCCCCCOC(=O)C(O)CC[S+](C)[O-] (centres unmarked) [Hexyl 2-Hydroxy-4-(Methylsulfinyl)Butanoate]	–
2.5	–	CSCCC(O)C(=O)OC(C)C (centres unmarked) [Isopropyl 2-hydroxy-4-(methylthio)butanoate]	–

Reference: patent US10227551B2, “Sulfur-containing compounds as solvents” (Novus International, Inc., priority 2015, dated 2019)
